According to US7074761B1, “Peptides and production and use thereof” (Takeda Chemical Ind., Ltd., priority 1996, dated 2006):
Where a SMILES comes first, the peptide text is derived from it. Bridges are numbered along the chain shown (N, C = ends).

Assays:
human SSTR5 = molecular target: T1, human SSTR5 (Homo sapiens, UniProt P35346); experiment: cAMP accumulation inhibiting activity in SSTR5 expressing CHO cells (forskolin stimulated); format: cell-based; details: forskolin 10 μM, CHO cells SSTR5-32-4; read-out: ED50, inhibition of intracellular cAMP accumulation, SSTR5
T1 construct: expressed in transfected cells; host or cells: CHO(dhfr-) cells, clone SSTR5-32-4, plasmid pA-1-11-SSTR5 (vector pAKKO-111)
Procedure: (§1) For measuring the intracellular accumulations of cyclic adenosine 3′,5′-monophosphate (cAMP), the human somatostatin receptor expressing cell lines SSTR2-HS5-9, SSTR3-15-19, SSTR4-1-2 and SSTR5-32-4 respectively described in Reference Example 2 (3), Reference Example 3 (3), Reference Example 4 (3) and Reference Example 5 (3) were multiplied on 24-well plates until confluency. Said cells were washed with two 1-ml portions of medium A [Dulbecco-'s modified Eagle's medium (DMEM), 20 mM 2-[4-(2-hydroxyethyl)-1-piperazinyl]ethanesulfonic acid (HEPES) (pH. 7.5), 0.2% BSA, 0.2 mM 3-isobutyl-1-methylxanthine (IBMX)] and then 400 μl of medium A was added to each well and incubation was carried out at 37° C. for 1 hour. To each well were added 50 μl of a hCS-15 or hCS-17 solution (each diluted to a concentration 10 times the final concentration with medium A) and 50 μl of a forskolin solution (final concentration: 10 μM), and incubation was carried out at 37° C. for 30 minutes. The cells were washed with two 1-ml portions of medium A and then 500 μl of medium A and 100 μL of 20% aqueous perchloric acid solution were added to each well, followed by standing at 4° C. for 20 minutes for cell lysis. […] The amount of cAMP contained in this extract was determined using an Amersham's kit (cAMP EIA system).

human SSTR3 = molecular target: T2, human SSTR3 (Homo sapiens, UniProt P32745); experiment: cAMP accumulation inhibiting activity in SSTR3 expressing CHO cells (forskolin stimulated); format: cell-based; details: forskolin 10 μM, CHO cells SSTR3-15-19; read-out: ED50, inhibition of intracellular cAMP accumulation, SSTR3
T2 construct: expressed in transfected cells; host or cells: CHO(dhfr-) cells, clone SSTR3-15-19, plasmid pA-1-11-SSTR3 (vector pAKKO-111)
Procedure: as §1

human SSTR1 = molecular target: T3, human SSTR1 (Homo sapiens, UniProt P30872); experiment: [125I]-somatostatin binding inhibition, SSTR1 CHO cell membrane fraction; details: 25° C., 60 minutes
T3 construct: expressed in transfected cells; host or cells: CHO(dhfr-) cells, clone SSTR1-8-3, plasmid pA-1-11-SSTR1 (vector pAKKO-111)
Procedure: CHO(dhfr^−) cells (1×10^6 cells) were cultured on HAM F12 medium containing 10% fetal bovine serum in a dish with a diameter of 8 cm for 24 hours. Into these cells was introduced 10 μg of the human SSTR1 cDNA expression plasmid pA-1-11-SSTR1 obtained as described above in (2) by the calcium phosphate method (Cell Phect Transfection Kit; Pharmacia). At 24 hours after transfection, the medium was exchanged for Dulbecco's modified Eagle's medium (DMEM) containing 10% dialyzed fetal bovine serum, and cells forming a colony on this medium (namely DHFR^+ cells) were selected. Further, the cells selected were treated by the limiting dilution method for cloning from a single cell, and the somatostatin receptor protein activity was measured in the following manner. […] The [^125I] on the filter paper was measured with a γ counter. […]
The membrane fractions prepared in Reference Example 6 were each diluted to 3 μg/ml with assay buffer. […] After filtration, the radioactivity of [^125I]-somatostatin remaining on the filter paper was measured. For each test substance, the binding inhibition percentage (%) was calculated according to the formula: PBM=(B−NSB)/(B0−NSB)×100 (where PBM: percent maximum binding; B: radioactivity when the test sample is added; B0: maximum bound radioactivity; NSB: non-specifically bound radioactivity). […]

T3 sequence (P30872 whole entry): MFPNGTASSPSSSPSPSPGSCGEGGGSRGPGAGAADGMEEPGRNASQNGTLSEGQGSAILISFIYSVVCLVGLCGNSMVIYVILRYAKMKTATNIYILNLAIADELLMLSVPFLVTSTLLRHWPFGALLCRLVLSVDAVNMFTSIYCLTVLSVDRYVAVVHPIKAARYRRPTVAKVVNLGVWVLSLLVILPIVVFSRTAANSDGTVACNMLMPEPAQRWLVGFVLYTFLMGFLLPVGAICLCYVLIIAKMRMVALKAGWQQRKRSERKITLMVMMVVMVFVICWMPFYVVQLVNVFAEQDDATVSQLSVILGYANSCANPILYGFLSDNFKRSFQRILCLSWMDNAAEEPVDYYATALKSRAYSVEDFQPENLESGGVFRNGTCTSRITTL
T2 sequence (P32745 whole entry): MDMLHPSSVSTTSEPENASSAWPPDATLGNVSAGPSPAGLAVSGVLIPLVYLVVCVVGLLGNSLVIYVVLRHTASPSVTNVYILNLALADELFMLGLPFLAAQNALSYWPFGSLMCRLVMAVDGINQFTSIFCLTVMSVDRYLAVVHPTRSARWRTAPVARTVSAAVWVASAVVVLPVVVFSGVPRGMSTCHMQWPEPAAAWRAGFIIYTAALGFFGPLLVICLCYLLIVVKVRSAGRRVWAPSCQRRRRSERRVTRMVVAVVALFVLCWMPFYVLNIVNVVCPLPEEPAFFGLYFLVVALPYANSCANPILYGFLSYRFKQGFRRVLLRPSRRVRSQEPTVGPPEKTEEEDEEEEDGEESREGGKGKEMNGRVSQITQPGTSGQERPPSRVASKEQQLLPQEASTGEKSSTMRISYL
T1 sequence (P35346 whole entry): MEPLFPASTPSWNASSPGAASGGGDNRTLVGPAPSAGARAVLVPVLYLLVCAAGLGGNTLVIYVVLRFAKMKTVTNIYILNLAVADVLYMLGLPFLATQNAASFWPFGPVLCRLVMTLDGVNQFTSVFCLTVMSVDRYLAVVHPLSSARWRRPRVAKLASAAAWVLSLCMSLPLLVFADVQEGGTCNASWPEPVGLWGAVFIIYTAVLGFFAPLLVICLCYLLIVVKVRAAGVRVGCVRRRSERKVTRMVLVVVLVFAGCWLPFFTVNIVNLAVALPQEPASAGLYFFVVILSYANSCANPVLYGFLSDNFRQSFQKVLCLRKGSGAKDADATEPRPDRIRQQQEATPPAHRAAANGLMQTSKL

EC50 (human SSTR5) | EC50 (human SSTR3) | IC50 (human SSTR1) | Structure (SMILES)
0.2 nM | 1 nM | 7 nM | CSCC[C@H](N)C(=O)N1CCC[C@H]1C(=O)N[C@H]1CSSC[C@@H](C(=O)N[C@@H](CCCCN)C(=O)O)NC(=O)[C@H](CO)NC(=O)[C@H](CO)NC(=O)[C@H](Cc2ccccc2)NC(=O)[C@H]([C@@H](C)O)NC(=O)[C@H](CCCCN)NC(=O)[C@H](Cc2c[nH]c3ccccc23)NC(=O)[C@H](Cc2ccccc2)NC(=O)[C@H](Cc2ccccc2)NC(=O)[C@H](CC(N)=O)NC(=O)[C@H](CCCNC(=N)N)NC1=O [hCS-15] (H-MPCRNFFWKTFSSCK-OH; disulfide 3-14; N-terminus and C-terminus assumed)
0.2 nM | 1 nM | 7 nM | CSCC[C@H](NC(=O)[C@H](CCCNC(=N)N)NC(=O)[C@@H](N)CC(=O)O)C(=O)N1CCC[C@H]1C(=O)N[C@H]1CSSC[C@@H](C(=O)N[C@@H](CCCCN)C(=O)O)NC(=O)[C@H](CO)NC(=O)[C@H](CO)NC(=O)[C@H](Cc2ccccc2)NC(=O)[C@H]([C@@H](C)O)NC(=O)[C@H](CCCCN)NC(=O)[C@H](Cc2c[nH]c3ccccc23)NC(=O)[C@H](Cc2ccccc2)NC(=O)[C@H](Cc2ccccc2)NC(=O)[C@H](CC(N)=O)NC(=O)[C@H](CCCNC(=N)N)NC1=O [hCS-17]
